Numbers after ± are expanded uncertainties.
Assay: molar heat capacity at saturation pressure
Settings: Crystal 3, Small (less than 1 g) adiabatic calorimetry

NC12CC3CC(CC(C3)C1)C2 [tricyclo(3.3.1.1:3,7)decan-1-amine]
Settings | molar heat capacity [J/K/mol]
5.371 K | 0.5825 ± 0.031
5.674 K | 0.6834 ± 0.033
5.933 K | 0.7778 ± 0.035
6.225 K | 0.9013 ± 0.037
6.555 K | 1.05 ± 0.039
6.892 K | 1.221 ± 0.042
7.234 K | 1.413 ± 0.046
7.582 K | 1.615 ± 0.049
7.934 K | 1.847 ± 0.053
8.29 K | 2.095 ± 0.057
8.65 K | 2.364 ± 0.061
9.012 K | 2.653 ± 0.066
9.378 K | 2.953 ± 0.07
9.748 K | 3.269 ± 0.075
10.12 K | 3.61 ± 0.08
10.59 K | 4.072 ± 0.086
11.18 K | 4.667 ± 0.095
11.76 K | 5.291 ± 0.1
12.35 K | 5.952 ± 0.11
12.95 K | 6.634 ± 0.12
13.55 K | 7.353 ± 0.13
14.16 K | 8.092 ± 0.14
14.78 K | 8.863 ± 0.15
15.5 K | 9.794 ± 0.16
16.34 K | 10.89 ± 0.17
17.18 K | 12.01 ± 0.18
18.02 K | 13.1 ± 0.19
18.87 K | 14.19 ± 0.2
19.72 K | 15.29 ± 0.21
20.86 K | 16.74 ± 0.22
22.27 K | 18.51 ± 0.22
23.71 K | 20.25 ± 0.23
25.14 K | 21.91 ± 0.24
26.57 K | 23.5 ± 0.24
28.24 K | 25.24 ± 0.24
29.96 K | 26.91 ± 0.23
31.58 K | 28.39 ± 0.24
33.36 K | 29.89 ± 0.25
35.14 K | 31.32 ± 0.26
36.93 K | 32.63 ± 0.27
38.72 K | 33.88 ± 0.27
40.51 K | 35.04 ± 0.27
42.4 K | 36.18 ± 0.28
44.38 K | 37.34 ± 0.29
46.37 K | 38.43 ± 0.29
48.36 K | 39.47 ± 0.3
50.35 K | 40.45 ± 0.3
52.35 K | 41.44 ± 0.31
54.34 K | 42.38 ± 0.32
56.34 K | 43.3 ± 0.32
58.35 K | 44.2 ± 0.32
60.36 K | 45.16 ± 0.32
62.36 K | 46.1 ± 0.33
64.37 K | 46.99 ± 0.33
66.38 K | 47.92 ± 0.34
68.39 K | 48.83 ± 0.34
70.41 K | 49.75 ± 0.35
72.42 K | 50.71 ± 0.36
74.44 K | 51.65 ± 0.36
76.46 K | 52.68 ± 0.37
78.49 K | 53.68 ± 0.37
78.62 K | 53.84 ± 0.37
80.52 K | 54.78 ± 0.37
80.69 K | 54.93 ± 0.37
82.5 K | 55.83 ± 0.38
82.55 K | 55.82 ± 0.38
84.31 K | 56.77 ± 0.38
84.59 K | 56.97 ± 0.38
86.12 K | 57.74 ± 0.39
88.91 K | 59.25 ± 0.4
91 K | 60.41 ± 0.44
92.82 K | 61.47 ± 0.45
94.65 K | 62.47 ± 0.45
96.48 K | 63.45 ± 0.46
98.3 K | 64.46 ± 0.46
100.14 K | 65.47 ± 0.47
101.97 K | 66.49 ± 0.47
103.81 K | 67.54 ± 0.47
105.65 K | 68.56 ± 0.47
107.49 K | 69.56 ± 0.48
109.33 K | 70.65 ± 0.48
111.18 K | 71.75 ± 0.49
113.03 K | 72.83 ± 0.49
114.88 K | 73.92 ± 0.5
116.73 K | 75.05 ± 0.5
118.59 K | 76.14 ± 0.51
120.45 K | 77.29 ± 0.51
122.31 K | 78.44 ± 0.52
124.17 K | 79.61 ± 0.52
126.03 K | 80.8 ± 0.52
127.9 K | 82.02 ± 0.53
129.77 K | 83.23 ± 0.5
131.64 K | 84.39 ± 0.5
133.51 K | 85.64 ± 0.58
135.38 K | 86.8 ± 0.58
137.26 K | 88.05 ± 0.58
139.13 K | 89.21 ± 0.58
141.01 K | 90.54 ± 0.58
142.89 K | 91.79 ± 0.58
144.78 K | 93.04 ± 0.58
146.66 K | 94.37 ± 0.58
148.56 K | 95.62 ± 0.58
150.44 K | 96.95 ± 0.58
150.6 K | 97.03 ± 0.58
152.33 K | 98.28 ± 0.58
153.55 K | 99.11 ± 0.58
154.22 K | 99.61 ± 0.58
156.12 K | 100.94 ± 0.58
156.34 K | 101.19 ± 0.58
158.01 K | 102.27 ± 0.58
159.13 K | 103.18 ± 0.58
159.9 K | 103.68 ± 0.58
161.8 K | 105.09 ± 0.58
161.91 K | 105.26 ± 0.58
163.69 K | 106.59 ± 0.67
164.48 K | 107.17 ± 0.67
165.59 K | 108 ± 0.67
166.66 K | 108.92 ± 0.67
167.48 K | 109.5 ± 0.67
168.73 K | 110.58 ± 0.67
169.38 K | 111 ± 0.67
170.79 K | 112.25 ± 0.67
171.28 K | 112.58 ± 0.67
172.85 K | 113.91 ± 0.67
173.18 K | 114.16 ± 0.67
174.91 K | 115.65 ± 0.67
175.08 K | 115.74 ± 0.67
176.96 K | 117.4 ± 0.67
176.98 K | 117.32 ± 0.67
178.89 K | 119.06 ± 0.67
179.01 K | 119.23 ± 0.67
180.8 K | 120.73 ± 0.67
181.05 K | 120.98 ± 0.67
182.71 K | 122.39 ± 0.67
183.09 K | 122.8 ± 0.67
184.61 K | 124.05 ± 0.67
185.12 K | 124.63 ± 0.67
186.52 K | 125.8 ± 0.67
187.15 K | 126.46 ± 0.75
188.43 K | 127.63 ± 0.75
189.18 K | 128.38 ± 0.75
190.33 K | 129.46 ± 0.75
191.2 K | 130.37 ± 0.75
192.24 K | 131.37 ± 0.75
193.21 K | 132.53 ± 0.75
194.15 K | 133.36 ± 0.75
195.22 K | 134.61 ± 0.75

From the NIST ThermoML archive (doi:10.1016/j.jct.2007.08.002)
